Patent US20030087430A1 (priority 2001, published 2003)

Key:
[1] = test system: conversion of squalene oxide to lanosterol; assay: Cholesterol synthesis in TMD-treated macrophages; assay type: cell-based; settings: 12 ug/ml TMD, RAW 264.7 macrophages
[2] = test system: Salmonella; assay: Intracellular growth of Salmonella in RAW 264.7 macrophages (colony forming units); assay type: cell-based, S. typhimurium
Protocol: RAW 264.7 macrophages were plated in triplicate at a density of 5×10^5 cells/well, and incubated for 6 hours prior to infection with various treatments (DMEM-FBS, DMEM-LPDS, DMEM-D-FBS+30 uM Mevinolin, or DMEM-FBS+30 uM Mevinolin, or DMEM-FBS+30 uM Mevinolin+150 uM mevalonate). Cells were infected at a multiplicity of infection of 10 bacteria per cell for 15 minutes at 37° C. After infection, monolayers were incubated in media containing 100 ug/ml gentamicin to kill extracellular bacteria and then maintained in media containing 10 ug/ml for the remainder of the experiment. At 20 hours post infection, the cells were washed three times in PBS, lysed in 1% Triton X-100 and then plated to determine colony forming units.
RAW 264.7 macrophages were plated in triplicate at a density of 4×10^5 cells/well, and infected with bacteria at a multiplicity of infection of 10 bacteria per cell for 15 minutes at 37° C.
After infection, the 12 ug/ml of 4,4,10-β trimethyl-trans-decal-3β-ol (TMD) inhibitor was added to the media which also contained 100 ug/ml gentamicin. At 2 hours post infection, the gentamicin concentration was lowered to 10 ug/ml and maintained for the remainder of the experiment. At 20 hours post infection, cells were lysed with 1% Triton X-100 and bacteria were plated for colony forming units.
Macrophages were treated with 50 nM mevinolin for 3 days prior to infection. Cells were infected as described above, lysed with Triton X-100 at 2 and 20 hours post infection, and then plated to determine colony forming units.

[3] = test system: Legionella; assay type: cell-based
[4] = test system: RAW264.7 macrophages infected with S. typhimurium (SL1344); assay: TUNEL staining of Salmonella-infected macrophages (apoptosis); assay type: cell-based; settings: 30 μM mevinolin from 4 hours prior to infection, 13 hours post infection
Protocol: RAW264.7 macrophages were treated with 30 uM mevinolin starting at 4 hours prior to infection. Infections were done with S. typhimurium (SL1344) at a moi of 10 bacteria per cell. At 13 hours post infection, cells were fixed and processed for TUNEL staining. At least 100 infected and 100 uninfected cells were counted in each monolayer and scored for TUNEL staining. Uninfected cells (black) and infected cells (gray) are shown. Averages of duplicate samples are shown.

[5] = test system: RAW 264.7 macrophages; assay: Host cell viability (Alamar Blue reduction); assay type: cell-based; settings: 10 nM to 100 uM mevinolin with or without mevalonate, 24 hours, Alamar Blue 3 hours
Protocol: RAW 264.7 macrophages were plated at a density of 1×10^5 cells/well and each sample represents the mean of six wells. Cells were treated with concentrations of mevinolin at 10 nM (1), 100 nM (2), 500 nM (3), 1 uM (4), 10 uM (5), 50 uM (6), 100 uM (7), 50 uM mevinolin+50 uM mevalonate (8), 50 uM mevinolin+150 uM mevalonate (9), 100 uM mevinolin+50 uM mevalonate (10), and 100 uM mevinolin+150 uM mevalonate (11), for 24 hours at 37° C. and then incubated with Alamar Blue for 3 hours.

[6] = test system: Salmonella; assay: Extracellular growth of Salmonella in Luria broth (optical density); assay type: cell-based; settings: LB containing 30 uM mevinolin, 37° C., optical density at 23 hours and growth curve
Protocol: Triplicate cultures of Salmonella were grown in a shaking incubator at 37° C. in plain LB, or LB containing 30 uM Mevinolin, and optical density was recorded at 23 hours after inoculation (results shown in FIG. 4A). Triplicate cultures of Salmonella were grown in a shaking incubator at 37° C. in plain LB or in LB containing 30 uM Mevinolin and optical density measurements were used to construct a growth curve (results shown in FIG. 4B).

Compound: CC1(C)[C@@H](O)CC[C@]2(C)CCCC[C@@H]12 (relative stereo) [TMD, 4,4,10-β trimethyl-trans-decal-3β-ol]
- cholesterol synthesis of treated cells [1]: accumulated intermediate precursors and made very little cholesterol
- intracellular survival of Salmonella ([2]; 12 ug/ml TMD added after infection, RAW 264.7 macrophages, CFU at 20 hours post infection): did not lead to a decrease in intracellular survival of Salmonella

Compound: CC[C@H](C)C(=O)O[C@H]1C[C@@H](C)C=C2C=C[C@H](C)[C@H](CC[C@@H]3C[C@@H](O)CC(=O)O3)[C@H]21 [mevinolin]
- intracellular growth of Legionella in human macrophages [3]: inhibited intracellular growth of Legionella in human macrophages
- reversal of the defect in Legionella intracellular growth by mevalonate [3]: could be reversed by the addition of mevalonate
- intracellular growth of Salmonella at physiologically relevant concentration ([2]; 50 nM mevinolin for 3 days prior to infection, CFU at 2 and 20 hours post infection): inhibit the intracellular growth of Salmonella
- reversal of the defect in Salmonella intracellular growth by mevalonate ([2]; 30 uM mevinolin + 150 uM mevalonate, RAW 264.7 macrophages): can be reversed by the addition of mevalonate
- Salmonella's intracellular survival ([2]; RAW 264.7 macrophages, 30 uM mevinolin from 6 hours prior to infection, CFU at 20 hours post infection): decreased Salmonella's intracellular survival by a factor of ten
- apoptosis in Salmonella-infected macrophages (TUNEL staining) [4]: induces apoptosis in Salmonella-infected macrophages
- host cell viability [5]: host cell viability is not affected
- bacterial growth in liquid culture (extracellular growth of Salmonella) [6]: does not affect bacterial growth in liquid culture
